Source: US8283299B2, “Skin and hand cleaning compositions with hydrophilic emollients” (Evonik Stockhausen GmbH, priority 2007, dated 2012)

What was measured:
[1] = Determination of the HLB value; assay type: physicochemical; conditions: 5% strength dispersion/solution in water, visual comparison with emulsifiers of known HLB
Experimental: The HLB value is determined by preparing a 5% strength dispersion/solution of the substance to be tested, here the hydrophilic emollient, in water, and determining the solubility in water. The assessment takes place visually: clouding, solubility, degree of dispersion. The HLB value is ascertained through comparison with solutions of emulsifiers whose HLB value is known.

[2] = cited from earlier work

Substance | HLB value (ascertained) [1] | HLB value according to manufacturer [2]
polyglyceryl-3 caprate [TEGOSOFT PC 31] | HLB: 14 | 
polyglyceryl-4 caprate [TEGOSOFT PC 41] | HLB: 16 | 
PEG-7 glyceryl cocoate [Glycerox HE] |  | HLB: 11
